Data as given in patent US12595269B2, “Morpholine-like monoamine releasers” (Solvonis Therapeutics Ireland Holdings Limited, priority 2022, dated 2026).
Read-outs that look alike come from different tables or passages of the source.

What was measured:
CYP3A4 = target: T1, CYP3A4 (Homo sapiens, UniProt P08684); assay: CYP450 inhibition, fluorescent probes 7BQ and DBOMF: CYP3A4; type: in vitro ADME; conditions: for IC50 at 10 min: human
T1 construct: purchased Life Technologies P2377; host or cells: Baculosomes
Description: (§1) Methods and Procedure: The study was performed in agreement with previously described procedures to assure data integrity and adherence to GLP standards. Briefly, recombinant human CYP450 isoenzymes were used to metabolize pro-fluorescent probe substrates to fluorescent products. IC50 values determined from the effect of test compounds on the metabolism of these probe substrates were then used to determine inhibitory potency against CYP450 isoforms.
The test system was based on a three-step procedure with a “mix and read” format, where PGP-432,TI reaction and reading were performed at 37° C. The assays described herein measure in vitro inhibitory effects (pIC50) of compounds on the human P450 isoforms (1A2, 2B6, 2C8, 2C9, 2C19, 2D6, 3A4) expressed in recombinant microsomes. Pro-fluorescent probe substrates were metabolized to fluorescent products by the enzymes. Fluorescence was measured in kinetic mode (1 read/minutes for 10 minutes), and the fluorescence rate was calculated.
Inhibition of the fluorescent signal resulting from P450 activation indicated inhibitory activity and facilitated calculation of the compound pIC50. […] Concentration response curves (CRCs) of compounds were run on two different test occasions (n=2) by preparing serial dilutions from the dame compound stock solution.
To prepare the compound plate, test compounds serial dilutions 1 to 3 were performed from a 10 mM stock solution in DMSO by Biomek FX to generate 10 point CRC with the highest concentrations in columns 3 and 13.
100% DMSO was placed in columns 1 and 2 and used for assay low controls. CYP inhibitor (10 mM miconazole solution in DMSO) was placed in columns 23 and 24 and served as an assay high controls. 1 μL copy plates were then stamped into V-bottom drug plates at a concentration that is 200 fold the final assay concentration. The copy plates were diluted prior to the experiment with assay buffer to reach 4 times the final assay concentration (2% w/v DMSO).
A reference compound (e.g., miconazole) was included in each compound plate in row A, column 3 and 13. The reference compound was diluted and stamped together with test compounds. The final concentrations of the 10 point CRCs of test compounds in the assay plate were 5.00E-05; 1.67E-05; 5.56E-06; 1.85E-06; 6.17E-07; 2.06E-07; 6.86E-08; 2.29E-08; 7.62E-09 and 2.54E-09, respectively. […]
(§2) Microsomes were added to the buffer prior to the substrate addition. […] For fluorescence measurement, 10 μL/well of the test compounds were transferred from the compound plate to the assay plate using Biomek FX and the appropriate protocol. […]
(§3) 10 μL/well of the cofactor was then added to the assay plate using the Multidrop before placing the assay plate in the plate reader EnVision to measure fluorescence. […]

CYP1A2 = target: T2, CYP1A2 (Homo sapiens, UniProt P05177); assay: CYP450 inhibition, fluorescent probe, recombinant microsomes: CYP1A2; type: in vitro ADME
T2 construct: host or cells: recombinant microsomes
T2 sequence (P05177 1-516): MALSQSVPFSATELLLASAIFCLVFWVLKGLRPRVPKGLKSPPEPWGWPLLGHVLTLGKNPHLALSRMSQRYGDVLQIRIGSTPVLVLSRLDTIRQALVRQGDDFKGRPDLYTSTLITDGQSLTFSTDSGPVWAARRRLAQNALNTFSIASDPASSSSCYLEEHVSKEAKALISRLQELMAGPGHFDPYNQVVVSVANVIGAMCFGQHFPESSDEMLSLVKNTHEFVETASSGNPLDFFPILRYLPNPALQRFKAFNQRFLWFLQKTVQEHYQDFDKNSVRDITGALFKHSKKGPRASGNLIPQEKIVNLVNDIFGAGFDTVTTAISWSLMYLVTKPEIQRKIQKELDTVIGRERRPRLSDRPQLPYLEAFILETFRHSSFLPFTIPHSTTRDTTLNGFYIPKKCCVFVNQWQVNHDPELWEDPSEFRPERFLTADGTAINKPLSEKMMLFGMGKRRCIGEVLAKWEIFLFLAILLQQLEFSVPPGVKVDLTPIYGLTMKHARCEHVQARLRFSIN
Description: as §1
The test system was based on a three-step procedure with a “mix and read” format, where PGP-432,TI reaction and reading were performed at 37° C. […] Fluorescence was measured in kinetic mode (1 read/minutes for 10 minutes), and the fluorescence rate was calculated. […]
as §2, §3
Next, 10 μL/well from the compound plate was added and incubated for 10 minutes at 37° C. on a plate shaker, while a mixture of Vivid Substrate and Vivid NADP+ in Vivid CYP450 Reaction Buffer was prepared. […] Regarding data analysis, the inhibition effect is expressed as a percentage. […]

T1 sequence (P08684 whole entry): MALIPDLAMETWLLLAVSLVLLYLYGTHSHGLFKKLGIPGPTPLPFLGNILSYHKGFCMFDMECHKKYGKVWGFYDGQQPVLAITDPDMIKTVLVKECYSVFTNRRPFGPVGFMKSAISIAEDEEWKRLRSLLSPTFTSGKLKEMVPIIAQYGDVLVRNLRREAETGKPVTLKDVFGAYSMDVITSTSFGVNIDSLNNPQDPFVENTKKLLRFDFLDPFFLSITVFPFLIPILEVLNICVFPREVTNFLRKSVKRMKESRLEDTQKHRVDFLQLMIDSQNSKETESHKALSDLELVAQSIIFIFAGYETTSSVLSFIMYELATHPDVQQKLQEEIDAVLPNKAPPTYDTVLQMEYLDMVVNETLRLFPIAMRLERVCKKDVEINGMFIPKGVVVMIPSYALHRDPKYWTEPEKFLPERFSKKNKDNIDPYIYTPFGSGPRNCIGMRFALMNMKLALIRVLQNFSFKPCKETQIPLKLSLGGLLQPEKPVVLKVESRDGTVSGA

## Clc1ccc(C23CNC(CO2)C3)cc1Cl (stereo not drawn) [522A, 1-(3,4-dichlorophenyl)-2-oxa-5-azabicyclo[2.2.1]heptane]
CYP3A4; recombinant human CYP3A4, substrate 7BQ, read-out: CYP450 Inhibition (IC50), CYP3A4 (7BQ)
  IC50: > 50 µM
CYP3A4; recombinant human CYP3A4, substrate DBOMF, read-out: CYP450 Inhibition (IC50), CYP3A4 (DBOMF)
  IC50: > 50 µM
CYP1A2; recombinant human CYP1A2
  IC50: > 50 µM

## CNC(C)Cc1ccc2c(c1)OCO2 (stereo not drawn) [MDMA, reference compound]
CYP3A4; recombinant CYP3A4 Baculosomes, pH 8, probe Vivid DBOMF
  IC50 at 10 min: 50 µM
CYP3A4; recombinant microsomes expressing CYP3A4, probe 7BQ
  IC50 at 10 min: 50 µM
CYP1A2; human, recombinant microsomes expressing CYP1A2
  IC50 at 10 min: 50 µM
